≈ marks a conversion by molar mass, not a printed value. Entries after “also recorded” stand apart in the source; their conditions may differ.
Tests used:
[1] = biological target: T1, human GluN1/GluN3A receptors (Homo sapiens, UniProt Q05586+Q8TCU5); experiment: Two-electrode voltage-clamp recordings of GluN1/GluN3A receptors in the presence of CGP-78608 (Xenopus oocytes); assay type: cell-based; conditions: pH 7.4; 0.5 μM CGP-78608; read-out: EC50, (95% CI) GluN1/GluN3A + CGP
T1 construct: Human GluN3A (NP_597702.2) and rat GluN3B (NP_579842.2) were synthesized and subcloned into SP6 plasmids; expressed in transfected cells; host or cells: Xenopus laevis oocytes, cRNA injection
From the text: (§1) cDNA encoding human wild-type (WT) GluN1-1a (GenBank accession numbers NP_015566, hereafter GluN1) and rat GluN1-1a (NP_058706.1) were synthesized and subcloned into pGEMHE plasmid; some experiments used the rat splice variant GluN1-4a (NP_001257531.1). Human GluN3A (NP_597702.2) and rat GluN3B (NP_579842.2) were synthesized and subcloned into SP6 plasmids. For most experiments, human GluN1 was co-expressed with human GluN3A, except for mutagenesis experiments where rat GluN1 was co-expressed with human GluN3A. Rat GluN1-4a was always expressed with rat GluN3B.
(§2) Defolliculated Xenopus laevis oocytes (stage V-VI) were obtained from Ecocyte BioScience (Austin, Texas), or prepared from commercially available Xenopus ovaries (Xenopus 1, Dexter, MI) as previously described (Hansen, et al., Mol. Pharmacol., 2013). A Drummond Nanoject II (Broomall, PA) was used to inject oocytes with cRNAs encoding GluN1 and GluN3 at a 1:3 ratio in RNase-free water. The cRNA was diluted as needed to give responses with amplitudes ranging between 200-2000 nA (0.2-10 ng total cRNA). Following cRNA injection, the oocytes were stored at 15-19° C. in Barth's solution that contained (in mM) 88 NaCl, 2.4 NaHCO3, 1 KCl, 0.33 Ca(NO3)2, 0.41 CaCl2), 0.82 MgSO4, and 5 Tris-HCl (pH 7.4 with NaOH), supplemented with 1 μg/ml streptomycin (Invitrogen, Carlsbad, CA) and 100 μg/ml gentamicin (Fisher Scientific, Pittsburgh, PA). Recordings were performed 2-5 days following cRNA microinjection at room temperature (23° C.) using a two-electrode voltage-clamp amplifier (OC725, Warner Instrument, Hamilton, CT). The signal was low-pass filtered at 10-20 Hz (4-pole, −3 dB Bessel) and digitized at the Nyquist rate using PCI-6025E or USB-6212 BNC data acquisition boards (National Instruments, Austin, TX) using EasyOocyte (http://www.easyoocyte.io/). Oocytes were placed in a custom-made chamber and continuously perfused (2.5 ml/min) with oocyte recording solution containing (in mM) 90 NaCl, 1 KCl, 10 HEPES, 0.5-1.0 BaCl2, and 0.01 EDTA (pH 7.4 with NaOH). Solutions were applied by gravity, and solution exchange was controlled through a rotary valve (Hamilton, Reno, NV). Recording electrodes were filled with 0.3-3.0 M KCl, and current responses were recorded at a holding potential of −40 mV.
(§3) Response (%)=(100−minimum)/(1+([concentration]/IC50)^nH)+minimum (2) • where nH is the Hill slope, IC50 is the concentration that produces a half-maximal effect, and minimum is the degree of residual inhibition at a saturating concentration of the negative allosteric modulator.

[2] = biological target: T2, human GluN1/GluN3A receptors (Homo sapiens, UniProt Q8TCU5); experiment: as above; assay type: cell-based
T2 construct: Human GluN3A (NP_597702.2) and rat GluN3B (NP_579842.2) were synthesized and subcloned into SP6 plasmids; expressed in transfected cells; host or cells: Xenopus laevis oocytes, cRNA injection
From the text: as §1, §2, §3

[3] = biological target: T3, rat GluN1-4a^FA,TL/GluN3B receptors (Rattus norvegicus, UniProt Q8VHN2); experiment: Two-electrode voltage-clamp recordings of GluN1-4a^FA,TL/GluN3B receptors (Xenopus oocytes); assay type: cell-based
T3 construct: Human GluN3A (NP_597702.2) and rat GluN3B (NP_579842.2) were synthesized and subcloned into SP6 plasmids; expressed in transfected cells; host or cells: Xenopus laevis oocytes, cRNA injection
From the text: as §1
Defolliculated Xenopus laevis oocytes (stage V-VI) were obtained from Ecocyte BioScience (Austin, Texas), or prepared from commercially available Xenopus ovaries (Xenopus 1, Dexter, MI) as previously described (Hansen, et al., Mol. Pharmacol., 2013). A Drummond Nanoject II (Broomall, PA) was used to inject oocytes with cRNAs encoding GluN1 and GluN3 at a 1:3 ratio in RNase-free water. The cRNA was diluted as needed to give responses with amplitudes ranging between 200-2000 nA (0.2-10 ng total cRNA). […] Recording electrodes were filled with 0.3-3.0 M KCl, and current responses were recorded at a holding potential of −40 mV. […]

[4] = system: GluN1/GluN2 NMDA receptors (GluN2A, GluN2B, GluN2C, GluN2D); experiment: Recombinant GluN1/GluN2 NMDA receptors in Xenopus oocytes (selectivity); assay type: cell-based, rat
GluA1-4 AMPA receptors = experiment: AMPA receptors in Xenopus oocytes (selectivity); assay type: cell-based, rat, human; conditions: 20 μM
[5] = system: GluN1/GluN2 NMDA receptors; experiment: Whole-cell patch-clamp of NMDA-activated responses in hippocampal CA1 pyramidal cells, acute brain slices; assay type: cell-based, mouse; conditions: 30 μM; 0.5 mM NMDA
GluN1/GluN3A channels = GluN1/GluN3A channels (Mus musculus, UniProt A2AIR5); experiment: Nonstationary variance analysis of neuronal glycine-evoked current responses; assay type: cell-based; conditions: 30 μM; VHOLD −60 mV
Protocol: Nonstationary variance analysis (Perszyk, et al., Nat. Chem. Biol., 2020, 16(2), 188-196) was conducted on the deactivation phase of the neuronal glycine-evoked current responses bathed in vehicle (control) or 30 μM EU1180-438 (VHOLD: −60 mV). […] The current was divided into 50 equally spaced segments, and the mean current amplitude of each segment was determined. The current was high pass filtered with a cutoff of 1 Hz, and the current variance was determined for 50 segments. The plot of variance vs. current for each response was fitted by the equation:
Variance=iI−I^2/N • where I is the current amplitude of macroscopic response, i is the weighted mean unitary current, and N is the channel numbers. Virtually identical results were found if the current-variance relationship for all 10 responses for each cell were averaged and then fitted by the foregoing equation. Chord conductance y was determined assuming 0 mV for the reversal potential.
Some allosteric modulators with molecular determinants in the pre-M1 can reduce single channel conductance for glutamate receptors (Perszyk, et al., Nat. Chem. Biol., 2020, 16(2), 188-196; Yuan, et al., ACS Med. Chem. Lett., 2019, 10 (3), 237-242). […]

[6] = Maximum solubility by nephelometry; assay type: physicochemical; conditions: aqueous buffer, kinetic from dmso stock; oocyte recording buffer (pH 7.4)
Protocol: The maximum solubility for the synthesized compounds was determined using a BMG Labtech Nephelostar™ nephelometer according to the manufacturer's instructions. For example, EU1180-438 was taken up in DMSO to prepare a 10 mM stock solution. The 10 mM solution was serially diluted into eleven concentrations (10, 5, 2.5, 1.25, 0.625, 0.3125, 0.1563, 0.0781, 0.0391, 0.0193, and 0.0098 mM) at the top of a clear-bottom 96-well plate. These were then each distributed into the subsequent 7 wells in 2.5 μL increments and diluted 100-fold (2.5 μL to 250 μL) with oocyte recording buffer (pH 7.4) into concentrations of 100, 50, 25, 12.5, 6.25, 3.125, 1.563, 0.781 0.391, 0.193, and 0.098 μM. The 96-well plate was shaken gently for 90 minutes before analysis.

[7] = 500 nM CGP-78608 plus 100 μM glycine

T2 sequence (Q8TCU5 24-1115, other chains not shown): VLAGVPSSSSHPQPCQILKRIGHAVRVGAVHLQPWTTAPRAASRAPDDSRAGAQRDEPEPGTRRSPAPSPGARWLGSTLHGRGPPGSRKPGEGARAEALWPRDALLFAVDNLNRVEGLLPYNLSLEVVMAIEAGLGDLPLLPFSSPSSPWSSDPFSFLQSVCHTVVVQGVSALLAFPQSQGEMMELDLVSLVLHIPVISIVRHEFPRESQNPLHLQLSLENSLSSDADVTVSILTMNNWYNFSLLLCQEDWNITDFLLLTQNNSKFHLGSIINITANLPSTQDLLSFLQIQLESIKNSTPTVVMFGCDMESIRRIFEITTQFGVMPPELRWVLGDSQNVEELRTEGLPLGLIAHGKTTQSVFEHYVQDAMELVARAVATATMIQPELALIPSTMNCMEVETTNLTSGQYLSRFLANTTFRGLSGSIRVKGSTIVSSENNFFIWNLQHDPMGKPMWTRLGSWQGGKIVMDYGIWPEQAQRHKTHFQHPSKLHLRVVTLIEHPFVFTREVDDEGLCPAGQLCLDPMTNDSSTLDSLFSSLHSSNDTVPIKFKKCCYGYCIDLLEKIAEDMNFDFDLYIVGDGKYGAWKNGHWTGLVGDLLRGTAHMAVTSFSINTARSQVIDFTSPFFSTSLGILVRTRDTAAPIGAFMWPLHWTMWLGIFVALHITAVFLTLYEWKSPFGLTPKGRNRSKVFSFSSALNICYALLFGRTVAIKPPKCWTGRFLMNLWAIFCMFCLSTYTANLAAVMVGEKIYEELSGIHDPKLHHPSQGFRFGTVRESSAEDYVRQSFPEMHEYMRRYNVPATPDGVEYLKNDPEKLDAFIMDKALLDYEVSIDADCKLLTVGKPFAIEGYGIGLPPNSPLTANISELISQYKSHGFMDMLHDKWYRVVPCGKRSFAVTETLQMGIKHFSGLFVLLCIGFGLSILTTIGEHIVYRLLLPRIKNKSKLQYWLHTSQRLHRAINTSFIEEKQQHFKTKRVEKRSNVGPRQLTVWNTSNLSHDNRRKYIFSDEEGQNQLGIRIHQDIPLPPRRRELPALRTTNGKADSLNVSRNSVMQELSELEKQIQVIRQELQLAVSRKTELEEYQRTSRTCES
T3 sequence (Q8VHN2 25-1002, other chains not shown): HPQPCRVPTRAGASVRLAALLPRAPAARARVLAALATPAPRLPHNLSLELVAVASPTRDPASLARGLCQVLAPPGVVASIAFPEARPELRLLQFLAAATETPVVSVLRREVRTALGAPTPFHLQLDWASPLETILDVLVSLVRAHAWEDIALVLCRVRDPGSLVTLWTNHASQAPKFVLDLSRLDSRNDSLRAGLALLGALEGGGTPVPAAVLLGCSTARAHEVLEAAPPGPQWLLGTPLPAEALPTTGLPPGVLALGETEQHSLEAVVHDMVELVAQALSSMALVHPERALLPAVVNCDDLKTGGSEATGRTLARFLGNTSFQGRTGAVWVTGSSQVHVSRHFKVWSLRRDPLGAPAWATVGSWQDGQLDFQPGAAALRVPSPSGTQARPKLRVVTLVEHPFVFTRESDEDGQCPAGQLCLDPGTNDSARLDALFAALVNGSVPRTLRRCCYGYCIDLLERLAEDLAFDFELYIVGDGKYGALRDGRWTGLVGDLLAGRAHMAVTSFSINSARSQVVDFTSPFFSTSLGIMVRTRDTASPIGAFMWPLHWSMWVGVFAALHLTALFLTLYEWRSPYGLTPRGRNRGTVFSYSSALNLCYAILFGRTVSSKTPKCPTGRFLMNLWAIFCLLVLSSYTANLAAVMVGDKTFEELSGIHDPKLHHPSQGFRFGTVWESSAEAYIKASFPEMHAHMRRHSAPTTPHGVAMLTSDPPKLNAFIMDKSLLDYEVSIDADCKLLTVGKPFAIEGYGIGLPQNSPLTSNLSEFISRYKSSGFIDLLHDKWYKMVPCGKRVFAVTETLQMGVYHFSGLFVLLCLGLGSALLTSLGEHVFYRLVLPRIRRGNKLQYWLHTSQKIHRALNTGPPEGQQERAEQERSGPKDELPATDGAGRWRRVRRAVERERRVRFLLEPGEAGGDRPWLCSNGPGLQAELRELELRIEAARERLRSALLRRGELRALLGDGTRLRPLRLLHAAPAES
T1 sequence (Q8TCU5 24-1115, other chains not shown): as the sequence (Q8TCU5 24-1115, other chains not shown) above
GluN1/GluN3A channels, sequence (A2AIR5 27-1135, other chains not shown): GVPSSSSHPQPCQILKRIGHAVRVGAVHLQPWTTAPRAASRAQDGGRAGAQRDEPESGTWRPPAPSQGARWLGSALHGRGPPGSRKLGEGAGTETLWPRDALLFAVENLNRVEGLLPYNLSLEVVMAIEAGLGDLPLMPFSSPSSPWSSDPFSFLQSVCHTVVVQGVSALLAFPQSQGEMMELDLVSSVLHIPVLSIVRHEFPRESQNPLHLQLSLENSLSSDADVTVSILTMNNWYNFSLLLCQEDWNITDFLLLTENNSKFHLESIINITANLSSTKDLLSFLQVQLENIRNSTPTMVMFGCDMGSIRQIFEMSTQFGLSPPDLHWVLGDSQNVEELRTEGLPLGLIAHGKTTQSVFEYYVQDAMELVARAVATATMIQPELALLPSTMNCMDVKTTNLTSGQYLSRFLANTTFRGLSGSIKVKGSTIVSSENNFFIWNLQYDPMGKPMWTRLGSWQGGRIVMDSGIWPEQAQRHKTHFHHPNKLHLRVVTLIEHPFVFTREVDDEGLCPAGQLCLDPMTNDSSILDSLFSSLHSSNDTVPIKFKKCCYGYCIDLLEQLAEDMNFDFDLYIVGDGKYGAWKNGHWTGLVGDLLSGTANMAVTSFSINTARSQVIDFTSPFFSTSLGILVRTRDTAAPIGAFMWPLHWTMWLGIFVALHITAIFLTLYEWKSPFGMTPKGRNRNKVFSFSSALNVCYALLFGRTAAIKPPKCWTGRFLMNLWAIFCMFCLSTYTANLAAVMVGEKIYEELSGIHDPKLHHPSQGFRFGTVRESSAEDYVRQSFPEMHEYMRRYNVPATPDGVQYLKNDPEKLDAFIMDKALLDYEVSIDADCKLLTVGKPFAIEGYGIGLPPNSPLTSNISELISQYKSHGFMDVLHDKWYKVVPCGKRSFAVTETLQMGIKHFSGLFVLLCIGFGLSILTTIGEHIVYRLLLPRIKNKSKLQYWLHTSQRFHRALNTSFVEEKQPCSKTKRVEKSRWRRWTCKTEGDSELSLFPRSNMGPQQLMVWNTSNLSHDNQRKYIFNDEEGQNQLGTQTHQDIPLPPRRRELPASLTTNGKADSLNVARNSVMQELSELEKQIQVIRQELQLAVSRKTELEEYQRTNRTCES

EC50 [1]: 1.8 µM | maximal inhibition ([2]; 500 nM CGP-78608): 85% | Slope [2, 7]: 1.5 | minimum [2, 7]: 15% | % Inhibition GluN1/GluN3A + CGP ([2]; fitted maximum at saturating test compound, pH 7.4, 0.5 μM CGP-78608): 85%, (n = 9) | IC50 [3]: 5.2 µM | inhibition at saturating concentrations [3]: 82% | activity toward recombinant GluN1/GluN2 NMDA receptors (GluN2A-D) [4]: no detectable activity | activity at GluN1/GluN2 NMDA receptors ([4]; 20 μM, rat GluN1-1a/GluN2A-D): virtually no activity | activity at GluA1-4 AMPA receptors (GluA1-4 AMPA receptors): virtually no activity | average chord conductance of GluN1/GluN3A channels (GluN1/GluN3A channels): 6.3±0.90 pS | solubility at 90 min [6]: 37 µM (≈ 14.4 µg/mL)
SMILES: COc1ccc(OCC(c2ccc(OC)cc2)N2Cc3ccccc3C2=O)cc1 (racemic) [EU1180-438, 2-(2-(4-methoxyphenoxy)-1-(4-methoxyphenyl)ethyl)isoindolin-1-one]
effect on NMDA-activated responses mediated by GluN1/GluN2 NMDA receptors [5]: not modulated; also recorded: did not affect

Source: patent US20230339854A1, “Negative Allosteric Modulation of GluN3-Containing N-Methyl-D-Aspartate Receptors” (Emory University, priority 2020, published 2023)
